Reference: patent US20090158447A1, “TLR ligand and IL-1 Response-Injured Animal Model” (priority 2004, published 2009)

T1: IκB-ζ (mouse, UniProt Q9EST8 1-728, limits assumed)
T1 construct: also called MAIL; INAP
T1 sequence (looked up): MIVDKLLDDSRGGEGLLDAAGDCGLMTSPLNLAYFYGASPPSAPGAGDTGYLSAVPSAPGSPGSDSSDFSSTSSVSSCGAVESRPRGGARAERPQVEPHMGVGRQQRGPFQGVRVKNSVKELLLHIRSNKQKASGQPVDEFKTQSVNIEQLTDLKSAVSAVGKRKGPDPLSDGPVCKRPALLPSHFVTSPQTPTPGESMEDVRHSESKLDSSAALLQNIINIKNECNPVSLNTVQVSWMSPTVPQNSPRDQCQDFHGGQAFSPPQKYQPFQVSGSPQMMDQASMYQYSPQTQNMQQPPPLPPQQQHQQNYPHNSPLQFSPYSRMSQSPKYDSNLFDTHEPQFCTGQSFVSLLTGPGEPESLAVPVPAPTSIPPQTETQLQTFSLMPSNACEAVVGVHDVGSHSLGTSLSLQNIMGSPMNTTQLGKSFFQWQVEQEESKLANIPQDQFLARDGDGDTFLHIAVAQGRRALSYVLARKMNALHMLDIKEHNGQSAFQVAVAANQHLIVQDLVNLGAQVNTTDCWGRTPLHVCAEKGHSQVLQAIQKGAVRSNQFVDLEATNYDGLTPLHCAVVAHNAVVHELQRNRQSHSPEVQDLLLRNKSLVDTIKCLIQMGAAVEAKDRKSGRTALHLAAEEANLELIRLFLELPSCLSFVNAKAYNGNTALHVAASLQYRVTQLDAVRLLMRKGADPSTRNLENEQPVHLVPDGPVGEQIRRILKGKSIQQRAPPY

B1: RelA (other, mouse, UniProt Q04207 1-549, looked up)
chain: MDDLFPLIFPSEPAQASGPYVEIIEQPKQRGMRFRYKCEGRSAGSIPGERSTDTTKTHPTIKINGYTGPGTVRISLVTKDPPHRPHPHELVGKDCRDGYYEADLCPDRSIHSFQNLGIQCVKKRDLEQAISQRIQTNNNPFHVPIEEQRGDYDLNAVRLCFQVTVRDPAGRPLLLTPVLSHPIFDNRAPNTAELKICRVNRNSGSCLGGDEIFLLCDKVQKEDIEVYFTGPGWEARGSFSQADVHRQVAIVFRTPPYADPSLQAPVRVSMQLRRPSDRELSEPMEFQYLPDTDDRHRIEEKRKRTYETFKSIMKKSPFNGPTEPRPPTRRIAVPTRNSTSVPKPAPQPYTFPASLSTINFDEFSPMLLPSGQISNQALALAPSSAPVLAQTMVPSSAMVPLAQPPAPAPVLTPGPPQSLSAPVPKSTQAGEGTLSEALLHLQFDADEDLGALLGNSTDPGVFTDLASVDNSEFQQLLNQGVSMSHSTAEPMLMEYPEAITRLVTGSQRPPDPAPTPLGTSGLPNGLSGDEDFSSIADMDFSALLSQISS
notes: Immunoprecipitated with anti-RelA (Santa Cruz); also called NF-κB RelA
B2: RelB (other, mouse, UniProt Q04863 1-558, looked up)
chain: MPSRRAARESAPELGALGSSDLSSLSLTVSRTTDELEIIDEYIKENGFGLDGTQLSEMPRLVPRGPASLSSVTLGPAAPPPPATPSWSCTLGRLVSPGPCPRPYLVITEQPKQRGMRFRYECEGRSAGSILGESSTEASKTLPAIELRDCGGLREVEVTACLVWKDWPHRVHPHSLVGKDCTDGVCRVRLRPHVSPRHSFNNLGIQCVRKKEIEAAIERKIQLGIDPYNAGSLKNHQEVDMNVVRICFQASYRDQQGHLHRMDPILSEPVYDKKSTNTSELRICRINKESGPCTGGEELYLLCDKVQKEDISVVFSTASWEGRADFSQADVHRQIAIVFKTPPYEDLEISEPVTVNVFLQRLTDGVCSEPLPFTYLPRDHDSYGVDKKRKRGLPDVLGELSSSDPHGIESKRRKKKPVFLDHFLPGHSSGLFLPPSALQPADSDFFPASISLPGLEPPGGPDLLDDGFAYDPSAPTLFTMLDLLPPAPPLASAVVGSGGAGATVVESSGPEPLSLDSFAAPGPGDVGTASLVGSNMFPNQYREAAFGGGLLSPGPEAT
B3: c-Rel (other, mouse, UniProt P15307 2-587, looked up)
chain: ASSGYNPYVEIIEQPRQRGMRFRYKCEGRSAGSIPGERSTDNNRTYPSVQIMNYYGKGKIRITLVTKNDPYKPHPHDLVGKDCRDGYYEAEFGPERRPLFFQNLGIRCVKKKEVKGAIILRISAGINPFNVGEQQLLDIEDCDLNVVRCVFMFFLPDEDGNFTTALPPIVSNPIYDNRAPNTAELRICRVNKNCGSVRGGDEIFLLCDKVQKDDIEVRFVLNDWEARGVFSQADVHRQVAIVFKTPPYCKAILEPVTVKMQLRRPSDQEVSESMDFRYLPDEKDAYGNKSKKQKTTLIFQKLLQDCGHFTEKPRTAPLGSTGEGRFIKKESNLFSHGTVLPEMPRSSGVPGQAEPYYSSCGSISSGLPHHPPAIPSVAHQPTSWPPVTHPTSHPVSTNTLSTFSAGTLSSNSQGILPFLEGPGVSDLSASNSCLYNPDDLARMETPSMSPTDLYSISDVNMLSTRPLSVMAPSTDGMGDTDNPRLVSINLENPSCNARLGPRDLRQLHQMSPASLSAGTSSSSVFVSQSDAFDRSNFSCVDNGLMNEPGLSDDANNPTFVQSSHYSVNTLQSEQLSDPFTYGFFKI
notes: Immunoprecipitated with anti-c-Rel (Santa Cruz)
B4: p52 subunit (other, mouse, UniProt Q9WTK5 1-454, looked up)
chain: MDNCYDPGLDGIPEYDDFEFSPSIVEPKDPAPETADGPYLVIVEQPKQRGFRFRYGCEGPSHGGLPGASSEKGRKTYPTVKICNYEGPAKIEVDLVTHSDPPRAHAHSLVGKQCSELGVCAVSVGPKDMTAQFNNLGVLHVTKKNMMEIMIQKLQRQRLRSKPQGLTEAERRELEQEAKELKKVMDLSIVRLRFSAFLRASDGSFSLPLKPVISQPIHDSKSPGASNLKISRMDKTAGSVRGGDEVYLLCDKVQKDDIEVRFYEDDENGWQAFGDFSPTDVHKQYAIVFRTPPYHKMKIERPVTVFLQLKRKRGGDVSDSKQFTYYPLVEDKEEVQRKRRKALPTFSQPFGGGSHMGGGSGGSAGGYGGAGGGGSLGFFSSSLAYNPYQSGAAPMGCYPGGGGGAQMAGSRRDTDAGEGAEEPRTPPEAPQGEPQALDTLQRAREYNARLFGLA

Experiments:
[1] = test system: peritoneal macrophages or lung-derived normal cells; assay: Northern blot analysis of IκB-ζ, Bcl-3 and IκB-α expression on TLR/IL-1R stimulation; type: cell-based, mouse; settings: stimulation for 2 hours, FIG. 1a
Protocol: Peritoneal macrophages and lung primary cells were stimulated with 100 ng ml^−1 BLP, 10 μg ml^−1 PGN, 30 ng ml^−1 MALP-2, 100 nM R-848, 3 μM CpG DNA, 10 ng ml^−1 IL-1β, 10 μg ml^−1 LPS, 100 ng ml^−1 flagellin, and 10 ng ml^−1 TNF-α for 2 hours. Total RNA (10 μg) was extracted and subjected to Northern blot analysis for investigating the expression of IκB-ζ, Bcl-3, IκB-α, and β-actin. b. MEFs from wild-type and MyD88-deficient mice were stimulated with 10 ng ml^−1 IL-1β and 10 μg ml^−1 LPS for the indicated periods. Total RNA (10 μg) was extracted and subjected to Northern blot analysis for investigating the expression of IκB-ζ, Cox-2, IP-10, and β-actin.
Whether IκB-ζ would be induced in response to other TLR ligands was examined based on the fact that stimulation with IL-1 or LPS induces IκB-ζ in macrophage cell lines and fibroblasts, and that IL-1R and the receptor for LPS, TLR4, share the intracellular signaling pathways. […] On the other hand, other IκB family members, IκB-α and Bcl-3, were induced in response to TNF-αas well as a TLR ligand and IL-1. Taken together, unlike IκB-α and Bcl-3, the IκB-ζ induction is specifically detected on the TLR/IL-1R stimulation.

[2] = molecular target: T1, IκB-ζ; assay: co-immunoprecipitation from peritoneal macrophage lysates, immunoblot with α-IκB-ζ
Text: RAW 264.7 cells were transiently transfected with luciferase reporter constructs of either mouse IL-6 promoter or ELAM1 promoter together with either a control or the IκB-ζ expression plasmid. Luciferase activities were expressed as fold-increase over the background shown by lysates prepared from untransfected cells. Data are representative of three separate experiments. In all three experiments, cells were stimulated with the indicated concentrations of LPS. b. A certain amount of IκB-ζ expression vector was transiently introduced into untreated RAW 264.7 cells with the indicated amount of IL-6 reporter plasmid. Data are representative of three independent experiments. c. Reporter constructs of either a wild-type or mutant IL-6 promoter were transiently introduced into P19 embryonic canrinoma cells together with either a control or an IκB-ζ expression plasmid. Luciferase activities were normalized in each case of reporter constructs by dividing the increase rate of IκB-ζ-expressed cells over the background shown by lysates by that of mock-expressed cells. d. Chromatin from untreated (−) or LPS-treated (+) (1 μg ml⁻¹ for 3 hours) RAW 264.7 cells were used for ChIp with the indicated antibodies. Precipitated DNA for the IL-6 κB site (left), 3′ region of IL-6 gene (center), or ELAM1 promoter (right) was measured by PCR (ChIP). Data are representative of two independent experiments. e. Unstimulated or LPS-stimulated (10 ng ml⁻¹) peritoneal macrophages were immunoprecepitated with the indicated antibodies. The immunoprecipitated lysates were subsequently immunoblotted with α-IκB-ζ.
Peritoneal macrophages and MEFs were stimulated with the indicated ligands for the indicated periods. The cells were then lysed in a lysis buffer containing 1.0% Nonidet-P40, 150 mM NaCl, 20 mM Tris-Cl (pH 7.5), 5 mM EDTA and protein inhibitor (Roche). The cell lysates were dissolved by SDS-PAGE and transferred on a PVDF membrances. For immunoprecipitation, cell lysates were precleared with Protein G-Sepharose™ (Amersham Pharmacia Biotech) for 2 h and then incubated with Protein G-Sepharose™ containing 1.0 μg of the indicated antibodies for 12 h with stirring at 4° C. The immunoprecipitants were washed four times with lysis buffer, eluted by boiling with Laemnli sample buffer, and subjected to Western blotting using α-IκB-ζ, as described above.

| Molecule | IκB-ζ mRNA induction [1] | Bcl-3 induction [1] | IκB-α induction [1] | binding result [2] |
| --- | --- | --- | --- | --- |
| CCOCc1nc2c(N)nc3ccccc3c2n1CC(C)(C)O [R848] | strongly induced | – | – | – |
| IL-1: Interleukin-1; recombinant IL-1β obtained from Genzyme | strongly induced | induced | induced | – |
| MALP-2 | strongly induced | – | – | – |
| TNF-α | no induction was observed | induced | induced | – |
| flagellin | strongly induced | – | – | – |
| peptidoglycan [PGN] | strongly induced | – | – | – |
| B1 | – | – | – | no binding |
| B2 | – | – | – | no binding |
| B3 | – | – | – | no binding |
| B4 | – | – | – | no binding |
